Reference: patent US4312883A, “Furocoumarin for the photochemotherapy of psoriasis and related skin diseases” (Consiglio Nazionale delle Ricerche, priority 1979, dated 1982)
“Also recorded” adds a separate entry of the source. Read-outs that look alike come from different tables or passages of the source.

Legend:
melamin pigmentation = settings: Table I; cited from earlier work
[1] = Table I; cited from earlier work
skin = experiment: Relative skin phototoxicity; settings: (psr = 100)
DNA synthesis = settings: Table I; cited from earlier work
DNA [2] = settings: cited from earlier work; for Photobinding capacity to DNA: known furocoumarins
[3] = known furocoumarins, Table I; cited from earlier work
epidermal DNA synthesis [4] = experiment: Inhibition of the synthesis of epidermal DNA of the mouse in vivo after oral administration and UV-A irradiation; settings: oral 0.25 g/Kg, UV-A 9 J/cm^2 after two hours
From the text: Considering that the topical skin tests carried out on mice to evaluate the effectiveness of these substances has yielded data which correlate well with the clinical data, such a test conveniently modified has been adopted to evaluate the effectiveness of the alkylangelicins after oral administration followed by UV-A irradiation.
In this connection experiments have been conducted using mice 20±2 g in weight, that were starved for three hours before oral administration of the alkylangelicins. Groups of 5 mice were fed a suspension of 0.5% methylcellulose in water containing the alkylangelicins of the invention at a dosage of 0.25 g/Kg. The animals were kept in the dark for two hours, that is for the time necessary for absorption, systemic distribution and localization of the drug at the level of the skin. The animals were then irradiated with UV-A light, 9 J/cm^2. Later the animals were sacrificed and the inhibition of the epidermal DNA synthesis was tested; the results obtained are reported in Table VI. The skin on the back, protected from light by a dark paper, was assumed as a control. As a reference 8-MOP, used under the same experimental conditions, was also tested. The significant activity of the alkylangelicins according to the present invention, higher than that of 8-MOP, in inhibiting the epidermal DNA synthesis in mice upon oral administration allows one to consider these compounds as also being effective for oral administration to humans for photochemotherapy of psoriasis and of other skin diseases that are characterized by cellular hyperproliferation.

psoriasis = experiment: Topical photochemotherapy of psoriasis in patients; format: in vivo, human; settings: topical 0.1% w/v + UV-A
From the text: Clinical data: The effectiveness of certain representative alkylangelicins according to the present invention, specifically 5-methylangelicin, 4,5'-dimethylangelicin, 4'-hydroxymethyl-4,5'-dimethylangelicin, 4'-hydroxymethyl-4,5'-dimethylangelicin and 4,5-dimethylangelicin, has been tested by measuring their capacity to resolve psoriasis in various patients. For a direct comparison the efficacy of the parent unsubstituted angelicin and that of three very effective linear furocoumarins, that is 8-methoxypsoralen (8-MOP), 5-methoxypsoralen (5-MOP), and 4,5',8-trimethylpsoralen (TMP) were also tested.
In each treatment four areas of the affected skin were used;
(a) In the first area an alcohol lotion, containing 10% glycerine, of the tested compound (0.1% w/v) was applied until a concentration of […] was reached then left to evaporate by the heat of the body. After half an hour the area was irradiated with high intensity UV-A emitting low pressure mercury fluorescent lamps with a wavelength of 320-400 nm. The irradiation doses were selected in the range of 4.5-13 J/cm^2 for each application as a function of the sensitivity of the skin of the patients; when the skin sensitivity was higher, the light doses were lower and vice versa.
(b) A second area was treated with an alcohol solution of the drug as in (a) but it was covered and maintained in the dark.
(c) A third area, where the drug was not applied, was irradiated as in (a) but in general with higher UV-A doses.
(d) A fourth area was not treated at all, neither with the drug, not with UV-A.
The treatment with the alkylangenlicins referred to above was repeated 5 time a week for two or more weeks; the total number of treatments was between 8 and 20 per subject. In some cases, as for instance with 5-methylangelicin, a good clearing of psoriasis was observed after 8 treatments.
In order to avoid induction of photosensitization processes such as redness and erythema in the reference tests made with the linear furocoumarins 8-MOP, 5-MOP, TMP, lower light doses were used than in the case of alkylangelicins, the treatments were repeated at a frequency of no more than three times a week.

DNA [5] = experiment: Photobinding to DNA, rate constants of the photoreactions; format: biochemical
From the text: (b) Determined according to F. Dall'Acqua, S. Marciani, F. Zambon and G.
Rodighiero, Photochem. Photobiol., 29,489(1979).
Photobinding capacity to DNA: The introduction of one or two methyl groups in the molecule of angelicin leads to a strong increase of the photobinding to DNA; see Table II. […] Photobiol., 29, 489 (1979).

DNA [6] = experiment: Capacity to form inter-strand cross-linkages in DNA; format: biochemical; settings: (psr = 100)
Experimental: All these compounds were not suitable to photoinduce in DNA inter-strand cross-linkages. […] These tests were carried out according to the method of F. Bordin et al., Photochem. Photobiol., 29,1063 (1979).

DNA [7] = experiment: Dark complex formation (intercalation) with DNA in the ground state, binding parameters; parameters: K (association constants) of the complexes with DNA: unit not given here
From the text: Dark complex formation: It is known from F. Dall'Acqua, et al. Chem.-Biol. Interactions 21,103 (1978) that the intercalated complex formed by furocoumarins with DNA strongly affects the successive photoaddition increasing the rate of photobinding. […] These parameters have been determined according to the method of McChee and Von Hippel, J.Mol.Biol, 86, 469 (1974).
(a) Determined according to Mc Ghee and Von Hippel, J. Mol. Biol.,

E. coli wild type strain = settings: E. coli wild type strains; cited from earlier work
epidermal DNA synthesis [8] = experiment: Inhibition of epidermal DNA synthesis in the mouse in vivo after topical application and UV-A irradiation; settings: light or radiation study, 0.01% methanol solutions, UV-A 9 J/cm^2, read-out: Percent inhibition ± standard error of epidermal DNA synthesis
Experimental: DNA samples were dissolved in water and their specific radioactivity determined.
Each drug substance was studied using at least six mice.

E. coli WP2 trp^- uvrA^- = settings: cited from earlier work
[9] = tested on: normal human and guinea pig skin; settings: in vivo; cited from earlier work

## O=c1ccc2ccc3occc3c2o1 [angelicin, reference compound]
Melamin pigmentation
  Stimulation of melamin pigmentation: absent
[1]
  Mutagenicity: weak
skin
  Relative skin phototoxicity: 0
DNA synthesis
  DNA synthesis inhibiting property: weak
DNA [2]; Table I
  DNA intercalation property: evident
  Interstrand cross-linking induction in DNA: absent
  Monoadduct forming property: weak
DNA [2]
  Photobinding capacity to DNA: low capacity of photobinding to DNA; also recorded: low photobinding capacity towards DNA
DNA [2]; listed as Angelicin
  Photobinding capacity to DNA: weak
[3]
  Photosensitizing activity: absent
Epidermal DNA synthesis [4]
  Percent inhibition ± standard error of epidermal DNA synthesis: 28 ± 2%
psoriasis; Excellent = 90% clearance
  No. of patients with Excellent result: 0 patients
psoriasis; Fair = 50-70%
  No. of patients with Fair result: 0 patients
psoriasis; Good = 70-90%
  No. of patients with Good result: 0 patients
psoriasis; Poor 40%
  No. of patients with Poor result: 8 patients
DNA [5]; in vitro, UV-A irradiated
  Rate constants of the photoreactions with DNA: 1.1 K × 10^-2 × min^-1
DNA [5]; relative (ang = 100)
  Rate constants of the photoreactions with DNA, relative: 100
DNA [6]
  capacity to form interstrand cross-linkages: 0
DNA [7]; in vitro, ground state, McGhee and Von Hippel method
  K (association constants) of the complexes with DNA: 560
DNA [7]; in vitro, ground state, molecules bound per nucleotide
  1/n (frequency of binding sites): 0.063
DNA [7]; relative (ang = 100)
  1/n (frequency of binding sites), relative: 100
  K (association constants), relative: 100
E. coli wild type strain
  mutagenic activity / mutation frequency, wild type: not detectable
Epidermal DNA synthesis [8]
  inhibition in vivo at 0.01 %: 17.5 ± 2.5%
E. coli WP2 trp^- uvrA^-
  mutagenic activity, strains deficient in known repair functions: Only very low mutagenic activity
[9]
  erythema or hyperpigmentation on the skin: does not provoke either erythema or hyperpigmentation on the skin
